Reference: patent US9108930B2, “N1- and N2-carbamoyl-1,2,3-triazole serine hydrolase inhibitors and methods” (The Scripps Research Institute, priority 2011, dated 2015)

How the values were obtained:
[1] = molecular target: T1, ACHE (Mus musculus, UniProt P21836); experiment: ABPP-SILAM of brain tissue from treated mice; format: in vivo; conditions: mouse brain proteome of treated mice
T1 construct: from tissue; host or cells: mouse brain
Procedure: (§1) The potency and selectivity of 1,2,3-triazole ureas in vivo also was investigated. Mice were treated with the APEH inhibitor AA74-1 at various doses (0.2-1.6 mg/kg; PEG300 or 18:1:1 saline/ethanol/emulphor intraperitoneally) and sacrificed after 4 h. Brains and hearts were removed, homogenized, and analyzed by gel-based competitive ABPP. […] Finally, the possibility of extending ABPP-SILAC for the characterization of inhibitor selectivity in vivo was explored by taking advantage of recently described protocols for stable isotope labeling in mammals (SILAM). In this approach, brain tissues from vehicle- and AA74-1-treated mice were separately mixed with equivalent amounts of brain tissue from ‘heavy’ amino acid-fed mice, and the samples were then labeled with FP-biotin, enriched by avidin chromatography, analyzed by LC-MS, and SH activities quantified by measuring the ratio-of-ratios for observed peptide signals. […] The ratio-of-ratio signals for APEH indicated greater than 90% inhibition of this enzyme in AA74-1-treated animals (FIG. 5b, top), consistent with average spectral count values (14 and 1 spectral counts for APEH in vehicle-treated versus AA74-1-treated mice, respectively; FIG. 5b, bottom). […] ACHE, an enzyme that is targeted by other reported NHU inhibitors, was not inhibited by AA74-1 in either mouse brain (FIG. 5b) or transfected cell (FIG. 16) proteomes.
(§2) C57BL6 mice were labeled with ^15N. Briefly, each mouse was fed an ^15N-labeled protein diet starting immediately after weaning which continued for the next 10 weeks. The ^15N-labeled diet was generated by combining spirulina biomass ^15N-labeled (Cambridge Isotopes) with protein-free diet powder (Harlan TD 93328) in a 1:2 (wt/wt) ratio and an appropriate amount of H2O to generate a dough. This dough is then cut into 2-cm thick pellets and dried at 60° C. for 2-4 h and then at 35° C. overnight using an Excalibur food dehydrator. These ^15N-labeled food pellets are then used to replace normal chow. […] Brains were determined to be 95% labeled by mass spectrometry with ^15N and used for quantitative analysis. […]

[2] = molecular target: T2, APEH (Mus musculus, UniProt Q8R146); experiment: ABPP-SILAM of brain tissue from treated mice; format: in vivo; conditions: treated mice (vehicle 14)
T2 sequence (Q8R146 1-732): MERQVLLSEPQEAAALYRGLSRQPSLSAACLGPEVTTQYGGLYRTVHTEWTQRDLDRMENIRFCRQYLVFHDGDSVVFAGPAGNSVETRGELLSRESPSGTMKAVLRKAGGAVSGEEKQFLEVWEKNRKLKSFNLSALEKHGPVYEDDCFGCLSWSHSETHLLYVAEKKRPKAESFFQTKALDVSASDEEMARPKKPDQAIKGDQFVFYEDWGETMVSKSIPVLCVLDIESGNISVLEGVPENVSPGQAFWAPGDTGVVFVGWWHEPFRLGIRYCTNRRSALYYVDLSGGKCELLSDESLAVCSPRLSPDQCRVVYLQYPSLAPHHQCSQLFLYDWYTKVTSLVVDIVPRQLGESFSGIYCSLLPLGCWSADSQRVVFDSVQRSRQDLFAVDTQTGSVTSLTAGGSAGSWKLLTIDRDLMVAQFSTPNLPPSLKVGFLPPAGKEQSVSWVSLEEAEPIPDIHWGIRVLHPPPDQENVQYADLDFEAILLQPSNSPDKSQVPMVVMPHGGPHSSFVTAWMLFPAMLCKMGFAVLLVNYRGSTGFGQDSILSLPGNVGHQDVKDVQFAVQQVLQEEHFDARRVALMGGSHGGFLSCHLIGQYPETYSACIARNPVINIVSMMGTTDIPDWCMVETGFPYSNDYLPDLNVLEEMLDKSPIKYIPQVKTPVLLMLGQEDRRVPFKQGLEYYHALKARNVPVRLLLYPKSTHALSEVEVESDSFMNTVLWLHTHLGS
Procedure: as §1, §2

[3] = molecular target: T3, PREPL (Mus musculus, UniProt Q8C167); experiment: ABPP-SILAM of brain tissue from treated mice; format: in vivo; conditions: may not represent actual changes
T3 construct: from tissue; host or cells: mouse brain
Procedure: as §1, §2

[4] = tested on: serine hydrolases (SHs) in mouse brain and heart; experiment: In vivo selectivity across SHs in tissues of treated mice (gel-based ABPP, ABPP-SILAM)
Procedure: as §1

[5] = molecular target: T4, APEH recombinantly expressed in HEK-293 cells (Mus musculus, UniProt Q8R146); experiment: APEH exopeptidase assay with synthetic N-acetylated hexapeptides (LC-MS); format: biochemical; conditions: 3 nM, 30 min pre-treatment
T4 construct: full-length cDNAs encoding mouse serine hydrolases were either transfected directly; host or cells: HEK-293
Procedure: Enzyme assays were performed with LC-MS by monitoring the release of the N-terminal N-acetyl amino acid. APEH was transiently overexpressed in HEK-293 cells and whole cell lysates were treated with DMSO or 3 nM AA74-1 for 30 minutes and adjusted to a final protein concentration of about 0.3 mg/mL with PBS buffer. For each reaction, about 200 μM of hexapeptide were incubated with lysates for 10 h at 37° C. before quenching with 0.8 mL MeOH. Samples were centrifuged for 10 minutes at 10,000×g at 4° C. and the supernatant was dried down under vacuum. For LC-MS analysis samples were injected into an Agilent 1100 LC-MSD SL instrument applying the following gradient: Buffer A (MeCN) to Buffer B (95:5 H2O/MeCN+50 mM NH4OAc+0.2% NH4OH). Data represent the average±s.d. for three experiments.
Enzyme assays were performed with LC-MS by monitoring the formation of free N-acetyl amino acid. Mouse APEH was recombinantly expressed in HEK-293 cells and whole cell lysates of overexpressed APEH (or mock) were pre-treated with DMSO or 3 nM AA74-1 for 30 minutes and adjusted to a final protein concentration of 0.3 mg/mL with PBS buffer. For each reaction 200 μM of hexapeptide substrate were incubated with lysates in 200 μL total reaction volume. Reactions were incubated for 10 h at 37° C. before quenching with 0.8 mL MeOH. […]

T3 sequence (Q8C167 whole entry): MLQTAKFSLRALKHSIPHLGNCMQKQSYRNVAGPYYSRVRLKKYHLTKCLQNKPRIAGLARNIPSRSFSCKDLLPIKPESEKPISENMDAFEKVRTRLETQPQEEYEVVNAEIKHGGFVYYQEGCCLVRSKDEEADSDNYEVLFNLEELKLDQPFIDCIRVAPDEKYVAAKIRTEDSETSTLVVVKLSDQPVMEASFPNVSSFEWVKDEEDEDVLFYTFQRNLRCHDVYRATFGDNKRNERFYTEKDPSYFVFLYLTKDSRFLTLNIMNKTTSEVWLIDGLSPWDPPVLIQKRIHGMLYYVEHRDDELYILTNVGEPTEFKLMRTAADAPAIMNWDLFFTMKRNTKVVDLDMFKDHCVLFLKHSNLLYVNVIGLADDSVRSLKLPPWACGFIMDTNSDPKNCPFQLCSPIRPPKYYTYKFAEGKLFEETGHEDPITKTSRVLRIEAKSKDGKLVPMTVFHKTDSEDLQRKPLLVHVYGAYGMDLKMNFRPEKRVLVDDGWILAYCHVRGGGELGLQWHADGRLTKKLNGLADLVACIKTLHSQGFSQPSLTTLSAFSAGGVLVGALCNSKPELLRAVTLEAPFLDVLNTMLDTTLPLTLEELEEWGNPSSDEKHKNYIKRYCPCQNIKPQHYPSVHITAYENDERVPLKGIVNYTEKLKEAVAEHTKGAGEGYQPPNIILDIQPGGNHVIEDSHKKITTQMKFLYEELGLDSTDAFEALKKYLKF
T1 sequence (P21836 32-614): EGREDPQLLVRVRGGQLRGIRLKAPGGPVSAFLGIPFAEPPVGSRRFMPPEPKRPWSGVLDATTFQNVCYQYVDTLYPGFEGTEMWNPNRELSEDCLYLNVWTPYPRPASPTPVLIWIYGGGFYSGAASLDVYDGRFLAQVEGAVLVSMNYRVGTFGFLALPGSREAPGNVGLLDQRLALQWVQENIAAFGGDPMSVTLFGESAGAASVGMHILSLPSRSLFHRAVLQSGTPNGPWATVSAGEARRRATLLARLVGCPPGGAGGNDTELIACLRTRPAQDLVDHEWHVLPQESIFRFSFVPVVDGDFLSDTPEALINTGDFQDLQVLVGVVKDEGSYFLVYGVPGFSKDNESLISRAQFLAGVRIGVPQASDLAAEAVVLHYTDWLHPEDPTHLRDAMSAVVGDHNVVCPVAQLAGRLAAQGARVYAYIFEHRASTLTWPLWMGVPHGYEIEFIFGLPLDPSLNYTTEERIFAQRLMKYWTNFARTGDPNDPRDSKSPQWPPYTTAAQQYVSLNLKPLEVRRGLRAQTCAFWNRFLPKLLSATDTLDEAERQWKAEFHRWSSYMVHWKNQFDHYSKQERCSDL

CC(C)CC(O)(CC(C)C)c1cnn(C(=O)N2CCCC2)n1 [AA74-1]
ACHE inhibition in mouse brain [1]: not inhibited
average spectral count for APEH [2]: 1 spectral counts
partial inhibition of PREPL suggested by ratio-of-ratio signals [3]: 50-60%
SHs inhibited among 44 SHs identified in brain (ABPP-SILAM) ([4]; 0.8 mg/kg, i.p.): only APEH was inhibited
additional SH targets by gel-based ABPP ([4]; brain and heart, 0.2-1.6 mg/kg i.p., 4 h): No additional SH targets were observed
cleavage of N-terminally acetylated residue by APEH-transfected cells [5]: blocked
